Assay results as given in publication PMC10706071, “Simultaneous Improvement in the Thermostability and Catalytic Activity of Epoxidase Lsd18 for the Synthesis of Lasalocid A” (International Journal of Molecular Sciences, 2023).

Assays:
Assay type in all cases: binding
Lsd18 [1] = target: T1, Lsd18 (Streptomyces lasalocidi, UniProt B5M9L6, T173M); experiment: bound FAD released by heating, absorbance at […] nm; settings: co-purified FAD; 20 mM Tris pH 8.5, 150 mM NaCl
T1 construct: full-length gene in pCold (NdeI/EcoRI), E. coli BL21(DE3) with chaperone plasmid pG-KJE8, Ni beads and gel filtration; reductively ethylated for crystals only

Lsd18 [2] = target: T2, Lsd18 (Streptomyces lasalocidi, UniProt B5M9L6); experiment: bound FAD released by heating ([…] °C, […] min), absorbance at […] nm; settings: co-purified FAD; 20 mM Tris pH 8.5, 150 mM NaCl
T2 construct: full-length gene in pCold (NdeI/EcoRI), E. coli BL21(DE3) with chaperone plasmid pG-KJE8, Ni beads and gel filtration; reductively ethylated for crystals only
T2 sequence (B5M9L6 1-472): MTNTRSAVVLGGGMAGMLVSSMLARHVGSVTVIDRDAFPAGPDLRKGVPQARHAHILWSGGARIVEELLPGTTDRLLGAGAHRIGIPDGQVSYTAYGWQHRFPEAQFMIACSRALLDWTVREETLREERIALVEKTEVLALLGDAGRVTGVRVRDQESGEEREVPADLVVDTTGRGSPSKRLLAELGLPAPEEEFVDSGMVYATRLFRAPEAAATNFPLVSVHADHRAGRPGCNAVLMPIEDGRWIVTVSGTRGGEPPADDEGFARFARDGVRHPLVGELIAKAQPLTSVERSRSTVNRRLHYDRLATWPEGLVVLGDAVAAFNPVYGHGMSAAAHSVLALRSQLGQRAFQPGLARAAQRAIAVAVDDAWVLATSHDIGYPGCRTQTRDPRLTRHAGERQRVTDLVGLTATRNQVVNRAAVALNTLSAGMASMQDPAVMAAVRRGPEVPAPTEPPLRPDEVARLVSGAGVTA

Lsd18 [3] = target: T3, Lsd18 (Streptomyces lasalocidi, UniProt B5M9L6, S179M); experiment: bound FAD released by heating, absorbance at […] nm; settings: co-purified FAD; 20 mM Tris pH 8.5, 150 mM NaCl
T3 construct: full-length gene in pCold (NdeI/EcoRI), E. coli BL21(DE3) with chaperone plasmid pG-KJE8, Ni beads and gel filtration; reductively ethylated for crystals only

Lsd18 [4] = target: T4, Lsd18 (Streptomyces lasalocidi, UniProt B5M9L6, T173M/S179M); experiment: X-ray crystal structure ([…] Å); FAD content by absorbance at […] nm; settings: co-purified FAD; reductively ethylated protein for crystals
T4 construct: full-length gene in pCold (NdeI/EcoRI), E. coli BL21(DE3) with chaperone plasmid pG-KJE8, Ni beads and gel filtration; reductively ethylated for crystals only
T4 sequence (B5M9L6 whole entry T173M/S179M): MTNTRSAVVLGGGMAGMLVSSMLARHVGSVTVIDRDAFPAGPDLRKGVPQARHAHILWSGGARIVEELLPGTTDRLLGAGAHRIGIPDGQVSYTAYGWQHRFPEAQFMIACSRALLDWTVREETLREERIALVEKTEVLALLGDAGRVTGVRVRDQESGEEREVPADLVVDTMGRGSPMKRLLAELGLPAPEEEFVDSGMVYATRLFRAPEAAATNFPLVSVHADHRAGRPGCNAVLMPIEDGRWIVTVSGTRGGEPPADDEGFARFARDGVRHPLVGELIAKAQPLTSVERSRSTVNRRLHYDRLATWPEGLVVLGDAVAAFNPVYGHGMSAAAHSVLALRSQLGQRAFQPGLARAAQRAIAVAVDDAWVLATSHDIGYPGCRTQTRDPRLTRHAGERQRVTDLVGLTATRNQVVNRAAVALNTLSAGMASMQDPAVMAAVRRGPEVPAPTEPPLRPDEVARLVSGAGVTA

T3 sequence (B5M9L6 whole entry S179M): as the sequence (B5M9L6 whole entry T173M/S179M) above, with M173T counted along it
T1 sequence (B5M9L6 whole entry T173M): as the sequence (B5M9L6 whole entry T173M/S179M) above, with M179S counted along it

In the case of `Cc1cc2nc3c(=O)[nH]c(=O)nc-3n(C[C@H](O)[C@H](O)[C@H](O)COP(=O)(O)OP(=O)(O)OC[C@H]3O[C@@H](n4cnc5c(N)ncnc54)[C@H](O)[C@@H]3O)c2cc1C` [FAD], the FAD content (Lsd18 [1]) is reported as “the FAD content in the mutants Lsd18-T189M, Lsd18-S195M, Lsd18-T189M-S195M increased”, the FAD content (Lsd18 [2]) is reported as “the yellower the color of Lsd18 (attributed to bound FAD), the more stable it was” and the FAD content (Lsd18 [3]) is reported as “the FAD content in the mutants Lsd18-T189M, Lsd18-S195M, Lsd18-T189M-S195M increased”. The “X-ray crystal structure (3.76 Å); FAD content by absorbance at 451 nm” value (Lsd18 [4]) was “M189 forms a hydrogen bond with the cofactor FAD that could stabilize the binding”.
